This note sets out measurements from patent publication US20150005288A1, “SUBSTITUTED PHENYLIMIDAZOPYRAZOLES AND USE THEREOF” (Bayer Intellectual Property GmbH, priority 2012, published 2015).

The assay deals with T1, intracellular domain of human Tie2 (GST fusion protein) (Homo sapiens, UniProt Q02763).
T1 construct: intracellular domain of human Tie2 (amino acids 776-1124); made in house; host or cells: Baculovirus-infected insect cells (Hi5)
As to the kind of experiment: Tie2 kinase assay (Tie2-TR-FRET). The class given is biochemical. The conditions noted are these: ATP concentration 1 mM, in some cases means of several independent determinations. An outline of the steps: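 GST fusion of human Tie2 intracellular domain (aa 776-1124, Hi5-expressed), ~30 ng/ml, pre-incubated 15 min with compound, then 1 mM ATP and 1 μM biotinylated peptide, 60 min at 22 °C, pH 7. TR-FRET (Eu anti-phosphotyrosine/streptavidin-XL665, 665/620 nm ratio). […] 20 μM–0.073 nM in duplicate; IC50 by 4-parameter fit.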
On the technique in general: In TR-FRET formats the signal depends on donor and acceptor labels being close together.

pIC50: −log10 of the molar value.

T1 sequence (Q02763 776-1124): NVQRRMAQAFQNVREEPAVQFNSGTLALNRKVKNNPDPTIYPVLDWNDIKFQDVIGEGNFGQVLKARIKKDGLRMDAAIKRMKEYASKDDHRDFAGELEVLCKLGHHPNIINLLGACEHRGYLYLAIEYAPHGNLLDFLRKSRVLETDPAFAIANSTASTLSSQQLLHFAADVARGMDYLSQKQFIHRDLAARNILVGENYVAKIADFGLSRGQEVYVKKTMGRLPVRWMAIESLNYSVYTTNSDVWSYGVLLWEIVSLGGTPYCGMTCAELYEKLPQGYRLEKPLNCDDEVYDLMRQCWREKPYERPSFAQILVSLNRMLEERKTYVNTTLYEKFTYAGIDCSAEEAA

Usually pIC50 stands for the IC50 on a negative log10 scale, so that one unit is a factor of ten. A high value points to a small IC50. On to `Cc1cc(C)c(-n2ccn3nc(-c4cccnc4)cc23)cc1NC(=O)c1cc(CC(C)(C)O)cc(S(F)(F)(F)(F)F)c1` [Example 154, N-{2,4-Dimethyl-5-[6-(pyridin-3-yl)-1H-imidazo[1,2-b]pyrazol-1-yl]phenyl}-3-(2-hydroxy-2-methylpropyl)-5-(pentafluoro-λ^6-sulphanyl)benzamide], for which the pIC50 was 9.40.
Consider `O=C(Nc1cccc(-n2ccn3nc(-c4cccnc4)cc23)c1O)c1cccc(S(F)(F)(F)(F)F)c1` [Example 82, N-{2-Hydroxy-3-[6-(pyridin-3-yl)-1H-imidazo[1,2-b]pyrazol-1-yl]phenyl}-3-(pentafluoro-λ^6-sulphanyl)benzamide], for which the negative-log IC50 (pIC50) was 6.60.
To `Cc1ccc(NC(=O)c2cc(CN3CCN(C)CC3)cc(S(F)(F)(F)(F)F)c2)cc1-n1ccn2nc(-c3cccnc3)cc12` [Example 36, 3-[(4-Methylpiperazin-1-yl)methyl]-N-{4-methyl-3-[6-(pyridin-3-yl)-1H-imidazo[1,2-b]pyrazol-1-yl]phenyl}-5-(pentafluoro-λ^6-sulphanyl)benzamide] belongs 9.52; to `Cc1cc(C)c(-n2ccn3nc(-c4cncnc4)cc23)cc1NC(=O)c1cccc(S(F)(F)(F)(F)F)c1` [Example 164, N-{2,4-Dimethyl-5-[6-(pyrimidin-5-yl)-1H-imidazo[1,2-b]pyrazol-1-yl]phenyl}-3-(pentafluoro-λ^6-sulphanyl)benzamide], 9.40.
`Cc1ccc(NC(=O)c2cccc(S(F)(F)(F)(F)F)c2)cc1-n1ccn2nc(-c3cnccn3)cc12` [Example 84, N-{4-Methyl-3-[6-(pyrazin-2-yl)-1H-imidazo[1,2-b]pyrazol-1-yl]phenyl}-3-(pentafluoro-λ^6-sulphanyl)benzamide]: the pIC50 is 6.66.
As to `Cc1ccc(NC(=O)c2cccc(S(F)(F)(F)(F)F)c2)cc1-n1ccn2nc(-c3cccnc3)c(F)c12` [Example 158, N-{3-[7-Fluoro-6-(pyridin-3-yl)-1H-imidazo[1,2-b]pyrazol-1-yl]-4-methylphenyl}-3-(pentafluoro-λ^6-sulphanyl)benzamide], the negative logarithm of the IC50 (pIC50) is 7.24.
In turn, `Cc1ccc(NC(=O)c2cccc(S(F)(F)(F)(F)F)c2)c(C)c1-n1ccn2nc(-c3cccnc3)cc12` [Example 119, N-{2,4-Dimethyl-3-[6-(pyridin-3-yl)-1H-imidazo[1,2-b]pyrazol-1-yl]phenyl}-3-(pentafluoro-λ^6-sulphanyl)benzamide] had a negative-log IC50 (pIC50) of 6.96.
Then `Cc1cc(C)c(-n2ccn3nc(-c4cccnc4)cc23)cc1NC(=O)c1cc(C(=O)O)cc(S(F)(F)(F)(F)F)c1` [Example 110, 3-({2,4-Dimethyl-5-[6-(pyridin-3-yl)-1H-imidazo[1,2-b]pyrazol-1-yl]phenyl}carbamoyl)-5-(pentafluoro-λ^6-sulphanyl)benzoic acid], with 8.30; and `Cc1ccc(NC(=O)c2cc(S(C)(=O)=O)cc(S(F)(F)(F)(F)F)c2)cc1-n1ccn2nc(-c3cncs3)cc12` [Example 176, 3-(Methylsulphonyl)-N-{4-methyl-3-[6-(1,3-thiazol-5-yl)-1H-imidazo[1,2-b]pyrazol-1-yl]phenyl}-5-(pentafluoro-λ^6-sulphanyl)benzamide], with 9.10; and `Cc1ccc(S(F)(F)(F)(F)F)cc1C(=O)Nc1ccc(C)c(-n2ccn3nc(-c4cccnc4)cc23)c1` [Example 91, 2-Methyl-N-{4-methyl-3-[6-(pyridin-3-yl)-1H-imidazo[1,2-b]pyrazol-1-yl]phenyl}-5-(pentafluoro-λ^6-sulphanyl)benzamide], with 6.67.
`Cc1ccc(NC(=O)c2ccnc(N3CCCC3)c2)cc1-n1ccn2nc(-c3cccnc3)cc12` [Example 67, N-{4-Methyl-3-[6-(pyridin-3-yl)-1H-imidazo[1,2-b]pyrazol-1-yl]phenyl}-2-(pyrrolidin-1-yl)-pyridine-4-carboxamide] gave a pIC50 of 7.24.
With `Cc1cc(C)c(-n2ccn3nc(-c4cccnc4)cc23)cc1NC(=O)c1cc(Cl)cc(S(F)(F)(F)(F)F)c1` [Example 108, 3-Chloro-N-{2,4-dimethyl-5-[6-(pyridin-3-yl)-1H-imidazo[1,2-b]pyrazol-1-yl]phenyl}-5-(pentafluoro-λ^6-sulphanyl)benzamide], the pIC50 was 9.15.
`Cc1cc(C)c(-n2ccn3nc(-c4cccnn4)cc23)cc1NC(=O)c1cccc(S(F)(F)(F)(F)F)c1` [Example 169, N-{2,4-Dimethyl-5-[6-(pyridazin-3-yl)-1H-imidazo[1,2-b]pyrazol-1-yl]phenyl}-3-(pentafluoro-λ^6-sulphanyl)benzamide] gave a pIC50 of 9.00.
Molecule `Cc1ccc(NC(=O)c2cc(C#N)cc(C(F)(F)F)c2)cc1-n1ccn2nc(-c3cccnc3)cc12` [Example 44, 3-Cyano-N-{4-methyl-3-[6-(pyridin-3-yl)-1H-imidazo[1,2-b]pyrazol-1-yl]phenyl}-5-(trifluoromethyl)benzamide] gave a negative logarithm of the IC50 (pIC50) of 6.89.
For the molecule `Cc1ccc(NC(=O)c2ccnc(N3CCCCC3)c2)cc1-n1ccn2nc(-c3cccnc3)cc12` [Example 68, N-{4-Methyl-3-[6-(pyridin-3-yl)-1H-imidazo[1,2-b]pyrazol-1-yl]phenyl}-2-(piperidin-1-yl)-pyridine-4-carboxamide], the pIC50 is 7.15.
Consider `Cc1ccc(NC(=O)c2cccc(OC(C)C)c2)cc1-n1ccn2nc(-c3cccnc3)cc12` [Example 60, N-{4-Methyl-3-[6-(pyridin-3-yl)-1H-imidazo[1,2-b]pyrazol-1-yl]phenyl}-3-(propan-2-yloxy)-benzamide], for which the negative logarithm of the IC50 (pIC50) was 6.90.
`Cc1ccc(NC(=O)c2cc(Br)cc(S(F)(F)(F)(F)F)c2)cc1-n1ccn2nc(-c3cncs3)cc12` [Example 175, 3-Bromo-N-{4-methyl-3-[6-(1,3-thiazol-5-yl)-1H-imidazo[1,2-b]pyrazol-1-yl]phenyl}-5-(pentafluoro-λ^6-sulphanyl)benzamide] showed a pIC50 of 8.49.
Molecule `Cc1cc(F)c(NC(=O)c2cc(C#N)cc(C(C)(C)C)c2)cc1-n1ccn2nc(-c3cccnc3)cc12` [Example 118, 3-tert-Butyl-5-cyano-N-{2-fluoro-4-methyl-5-[6-(pyridin-3-yl)-1H-imidazo[1,2-b]pyrazol-1-yl]-phenyl}benzamide] gave a pIC50 of 9.40.
As to `Cc1cc(C(=O)Nc2ccc(C)c(-n3ccn4nc(-c5cccnc5)cc34)c2)cc(S(N)(=O)=O)c1` [Example 124, 3-Methyl-N-{4-methyl-3-[6-(pyridin-3-yl)-1H-imidazo[1,2-b]pyrazol-1-yl]phenyl}-5-sulphamoyl-benzamide], the pIC50 was 6.53.
To `Cc1ccc(NC(=O)c2cccc(-c3cccc(C#N)c3)c2)cc1-n1ccn2nc(-c3cccnc3)cc12` [Example 54, 3′-Cyano-N-{4-methyl-3-[6-(pyridin-3-yl)-1H-imidazo[1,2-b]pyrazol-1-yl]phenyl}biphenyl-3-carboxamide] belongs 6.17.
For the molecule `Cc1ccc(NC(=O)c2cc(Cl)nc(C(C)(C)C)c2)cc1-n1ccn2nc(-c3cccnc3)cc12` [Example 65, 2-tert-Butyl-6-chloro-N-{4-methyl-3-[6-(pyridin-3-yl)-1H-imidazo[1,2-b]pyrazol-1-yl]phenyl}isonicotinamide], the negative logarithm of the IC50 (pIC50) was 7.24.
`Cc1cc(C)c(-n2ccn3nc(-c4cccnc4)cc23)cc1NC(=O)c1cc(N2CCC(C#N)CC2)cc(S(F)(F)(F)(F)F)c1` [Example 144, 3-(4-Cyanopiperidin-1-yl)-N-{2,4-dimethyl-5-[6-(pyridin-3-yl)-1H-imidazo[1,2-b]pyrazol-1-yl]-phenyl}-5-(pentafluoro-λ^6-sulphanyl)benzamide] gave a pIC50 of 9.22.
For `Cc1ccc(NC(=O)c2ccnc(C(C)(C)C)c2)cc1-n1ccn2nc(-c3cccnc3)cc12` [Example 64, 2-tert-Butyl-N-{4-methyl-3-[6-(pyridin-3-yl)-1H-imidazo[1,2-b]pyrazol-1-yl]phenyl}isonicotinamide], the pIC50 was 7.39.
Take `Cc1ccc(NC(=O)c2cc(Cl)cc(S(F)(F)(F)(F)F)c2)cc1-n1ccn2nc(-c3cncs3)cc12` [Example 174, 3-Chloro-N-{4-methyl-3-[6-(1,3-thiazol-5-yl)-1H-imidazo[1,2-b]pyrazol-1-yl]phenyl}-5-(pentafluoro-λ^6-sulphanyl)benzamide]: the negative-log IC50 (pIC50) is 8.55.
Regarding `N#Cc1cc(C(=O)Nc2ccc(Cl)c(-n3ccn4nc(-c5cccnc5)cc34)c2)cc(S(F)(F)(F)(F)F)c1` [Example 97, N-{4-Chloro-3-[6-(pyridin-3-yl)-1H-imidazo[1,2-b]pyrazol-1-yl]phenyl}-3-cyano-5-(pentafluoro-λ^6-sulphanyl)benzamide], the pIC50 was 8.04.
On to `Cc1ccc(NC(=O)c2cccc(C(F)(F)F)c2)cc1-n1ccn2nc(-c3cn[nH]c3)cc12` [Example 5, N-{4-Methyl-3-[6-(1H-pyrazol-4-yl)-1H-imidazo[1,2-b]pyrazol-1-yl]phenyl}-3-(trifluoromethyl)-benzamide], for which the pIC50 was 6.42.
`Cc1cc(C)c(-n2ccn3nc(-c4cccnc4)cc23)cc1NC(=O)c1cccc(C2(C)COC2)c1` [Example 140, N-{2,4-Dimethyl-5-[6-(pyridin-3-yl)-1H-imidazo[1,2-b]pyrazol-1-yl]phenyl}-3-(3-methyloxetan-3-yl)benzamide] gave a pIC50 of 9.30.
In the case of `COc1cccc(C(=O)Nc2cc(-n3ccn4nc(-c5cccnc5)cc34)c(C)cc2C)c1` [Example 131, N-{2,4-Dimethyl-5-[6-(pyridin-3-yl)-1H-imidazo[1,2-b]pyrazol-1-yl]phenyl}-3-methoxybenzamide], the negative logarithm of the IC50 (pIC50) was 6.60.
`Cc1cc(C)c(-n2ccn3nc(-c4cccnc4)cc23)cc1NC(=O)c1cc(CC(=O)OC(C)(C)C)cc(S(F)(F)(F)(F)F)c1` [Example 150, tert-Butyl [3-({2,4-dimethyl-5-[6-(pyridin-3-yl)-1H-imidazo[1,2-b]pyrazol-1-yl]phenyl}-carbamoyl)-5-(pentafluoro-λ^6-sulphanyl)phenyl]acetate]: the pIC50 is 8.62.
